Key:
[1] = DRUGMATRIX: Nicotinic Acetylcholine radioligand binding (ligand: [125I] Epibatidine); type: cell membranes, Membrane; settings: imr-32; Not Active = under 50% inhibition at 10 µM
[2] = target: Beta-1 adrenergic receptor (Homo sapiens, UniProt P08588); experiment: DRUGMATRIX: Adrenergic beta1 radioligand binding (ligand: [125I] Cyanopindolol); type: cell membranes, CHO-K1, Membrane; settings: cho-k1; Not Active = under 50% inhibition at 10 µM
Cytochrome P450 2C19 = Cytochrome P450 2C19 (Homo sapiens, UniProt P33261); settings: bti-tn-5b1-4; note: in other assays of this panel Not Active means under 50% inhibition at 10 µM
[3] = target: Sigma non-opioid intracellular receptor 1 (Homo sapiens, UniProt Q99720); experiment: DRUGMATRIX: Sigma1 radioligand binding (ligand: [3H] Haloperidol); type: cell membranes, Jurkat, Membrane; settings: jurkat; Not Active = under 50% inhibition at 10 µM
Glucocorticoid receptor = target: T1, Glucocorticoid receptor (Homo sapiens, UniProt P04150); settings: hela s3; note: in other assays of this panel Not Active means under 50% inhibition at 10 µM
T1 sequence (P04150 whole entry): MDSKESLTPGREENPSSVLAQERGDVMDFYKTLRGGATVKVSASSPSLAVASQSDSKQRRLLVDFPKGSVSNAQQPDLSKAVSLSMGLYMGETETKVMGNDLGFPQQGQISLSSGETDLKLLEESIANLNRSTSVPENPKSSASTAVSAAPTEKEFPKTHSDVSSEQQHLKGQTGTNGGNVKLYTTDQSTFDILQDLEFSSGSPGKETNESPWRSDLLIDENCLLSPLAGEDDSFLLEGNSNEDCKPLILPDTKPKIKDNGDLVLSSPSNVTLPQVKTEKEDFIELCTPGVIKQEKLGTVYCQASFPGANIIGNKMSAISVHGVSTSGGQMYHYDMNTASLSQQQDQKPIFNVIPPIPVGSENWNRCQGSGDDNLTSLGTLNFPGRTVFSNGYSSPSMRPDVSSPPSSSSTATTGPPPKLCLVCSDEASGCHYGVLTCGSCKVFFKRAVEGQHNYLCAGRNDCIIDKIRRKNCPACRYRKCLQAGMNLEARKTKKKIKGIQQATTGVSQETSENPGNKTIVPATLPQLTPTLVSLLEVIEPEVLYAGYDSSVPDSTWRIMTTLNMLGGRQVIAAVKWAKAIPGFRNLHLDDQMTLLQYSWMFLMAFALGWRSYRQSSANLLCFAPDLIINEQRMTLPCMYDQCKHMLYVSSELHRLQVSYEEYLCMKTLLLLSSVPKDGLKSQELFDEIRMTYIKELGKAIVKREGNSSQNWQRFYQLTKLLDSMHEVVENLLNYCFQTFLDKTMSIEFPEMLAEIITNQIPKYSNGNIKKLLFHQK

[4] = target: T2, Cholecystokinin receptor type A (Homo sapiens, UniProt P32238); type: cell membranes, Membrane; settings: 1321-n1; note: in other assays of this panel Not Active means under 50% inhibition at 10 µM
T2 sequence (P32238 whole entry): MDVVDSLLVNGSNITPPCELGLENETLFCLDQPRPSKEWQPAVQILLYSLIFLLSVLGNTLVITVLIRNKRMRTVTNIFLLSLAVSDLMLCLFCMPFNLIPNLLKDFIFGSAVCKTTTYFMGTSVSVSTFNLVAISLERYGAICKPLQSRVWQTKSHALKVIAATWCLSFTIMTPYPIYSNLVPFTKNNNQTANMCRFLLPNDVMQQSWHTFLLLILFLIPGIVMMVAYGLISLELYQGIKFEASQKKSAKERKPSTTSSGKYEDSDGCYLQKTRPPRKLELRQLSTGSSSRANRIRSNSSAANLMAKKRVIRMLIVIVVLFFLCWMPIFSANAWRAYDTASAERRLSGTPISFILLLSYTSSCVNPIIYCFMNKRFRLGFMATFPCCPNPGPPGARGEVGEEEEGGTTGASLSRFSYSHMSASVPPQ

[5] = target: Tyrosine-protein kinase Fyn (Homo sapiens, UniProt P06241); experiment: biochemical; type: cell-based, Insect cells;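 note: enzymatic inhibition of Fyn kinase activity measured with Poly(Glu:Tyr) as the phosphorylation substrate; in other assays of this panel Not Active means under 50% inhibition at 10 µM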
[6] = DRUGMATRIX: Sigma2 radioligand binding (ligand: [3H] Ifenprodil); type: cell membranes, Rattus norvegicus, Wistar, Brain, Membrane; settings: Not Active = under 50% inhibition at 10 µM
[7] = target: cGMP-specific 3',5'-cyclic phosphodiesterase (Homo sapiens, UniProt O76074); experiment: DRUGMATRIX: Phosphodiesterase PDE5 enzyme inhibition (substrate: [3H]cGMP + cGMP); type: tissue-based; settings: platelet; Not Active = under 50% inhibition at 10 µM

Tyrosine-protein kinase Fyn, sequence (P06241 whole entry): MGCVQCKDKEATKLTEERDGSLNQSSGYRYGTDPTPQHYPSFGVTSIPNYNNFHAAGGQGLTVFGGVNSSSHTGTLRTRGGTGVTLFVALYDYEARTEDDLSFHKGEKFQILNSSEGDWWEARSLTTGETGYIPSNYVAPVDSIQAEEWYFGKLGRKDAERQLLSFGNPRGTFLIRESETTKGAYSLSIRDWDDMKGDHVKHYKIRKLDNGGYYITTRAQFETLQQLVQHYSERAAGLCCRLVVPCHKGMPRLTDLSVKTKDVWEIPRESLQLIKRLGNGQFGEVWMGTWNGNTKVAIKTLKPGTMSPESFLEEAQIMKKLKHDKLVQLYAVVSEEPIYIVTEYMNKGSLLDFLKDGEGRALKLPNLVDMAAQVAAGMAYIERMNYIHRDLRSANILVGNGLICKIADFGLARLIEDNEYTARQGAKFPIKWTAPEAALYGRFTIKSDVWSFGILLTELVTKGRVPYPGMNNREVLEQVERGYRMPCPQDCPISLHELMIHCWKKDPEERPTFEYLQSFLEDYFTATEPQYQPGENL
Cytochrome P450 2C19, sequence (P33261 whole entry): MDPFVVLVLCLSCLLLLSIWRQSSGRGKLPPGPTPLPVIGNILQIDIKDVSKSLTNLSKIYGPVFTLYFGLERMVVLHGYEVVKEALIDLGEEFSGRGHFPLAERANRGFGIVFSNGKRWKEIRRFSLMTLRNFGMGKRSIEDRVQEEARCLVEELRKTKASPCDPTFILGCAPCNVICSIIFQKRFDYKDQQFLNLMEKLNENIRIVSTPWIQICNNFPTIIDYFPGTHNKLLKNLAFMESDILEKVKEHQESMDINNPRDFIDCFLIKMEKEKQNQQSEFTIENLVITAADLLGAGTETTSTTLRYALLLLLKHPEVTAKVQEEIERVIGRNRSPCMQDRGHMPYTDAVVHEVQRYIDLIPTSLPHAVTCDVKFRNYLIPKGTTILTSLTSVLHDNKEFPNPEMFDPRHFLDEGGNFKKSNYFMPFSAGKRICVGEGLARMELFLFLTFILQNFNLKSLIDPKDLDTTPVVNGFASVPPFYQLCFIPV
Sigma non-opioid intracellular receptor 1, sequence (Q99720 whole entry): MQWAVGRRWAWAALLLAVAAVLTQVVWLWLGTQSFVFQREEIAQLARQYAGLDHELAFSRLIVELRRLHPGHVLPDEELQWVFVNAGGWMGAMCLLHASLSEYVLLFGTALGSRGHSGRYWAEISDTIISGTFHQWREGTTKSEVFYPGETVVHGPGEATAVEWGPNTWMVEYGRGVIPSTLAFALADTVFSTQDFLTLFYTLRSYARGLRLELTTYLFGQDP
Beta-1 adrenergic receptor, sequence (P08588 whole entry): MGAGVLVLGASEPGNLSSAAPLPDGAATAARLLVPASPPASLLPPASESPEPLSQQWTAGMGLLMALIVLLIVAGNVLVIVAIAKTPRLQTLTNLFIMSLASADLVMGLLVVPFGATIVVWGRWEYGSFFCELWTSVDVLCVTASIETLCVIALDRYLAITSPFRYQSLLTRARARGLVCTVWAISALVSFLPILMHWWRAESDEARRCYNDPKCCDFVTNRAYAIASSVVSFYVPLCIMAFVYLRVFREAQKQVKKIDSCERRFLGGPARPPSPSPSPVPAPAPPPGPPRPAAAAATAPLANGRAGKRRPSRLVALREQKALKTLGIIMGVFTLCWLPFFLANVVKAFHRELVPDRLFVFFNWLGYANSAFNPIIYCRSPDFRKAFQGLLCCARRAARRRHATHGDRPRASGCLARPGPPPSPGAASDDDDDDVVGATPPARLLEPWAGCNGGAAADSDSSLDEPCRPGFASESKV

SMILES | IC50 [1] | Ki [1] | IC50 [2] | IC50 (Cytochrome P450 2C19) | Ki (Cytochrome P450 2C19) | IC50 [3] | IC50 (Glucocorticoid receptor) | IC50 [4] | IC50 ([5]; insect cells) | IC50 [6] | Ki [6] | IC50 [7] | IC50 ([5]; read-out: IC50) [µM]
[H]/N=C(/N)N[C@H]1[C@H](O)[C@@H](O)[C@H](O[C@@H]2O[C@@H](C)[C@](O)(C=O)[C@H]2O[C@@H]2O[C@@H](CO)[C@H](O)[C@@H](O)[C@@H]2NC)[C@@H](N/C(N)=N\[H])[C@@H]1O [STREPTOMYCIN] | Not Active | Not Active | Not Active | Not Active | Not Active | Not Active | Not Active | Not Active | Not Active | Not Active | Not Active | Not Active | 
COc1cc(NS(=O)(=O)c2ccc(N)cc2)nc(OC)n1 [SULFADIMETHOXINE] | Not Active | Not Active | Not Active | Not Active | Not Active | Not Active | Not Active | Not Active | Not Active | Not Active | Not Active | Not Active | 
Cc1cc(C)nc(NS(=O)(=O)c2ccc(N)cc2)n1 [SULFAMETHAZINE] | Not Active | Not Active | Not Active | Not Active | Not Active | Not Active | Not Active | Not Active | Not Active | Not Active | Not Active | Not Active | 
C[C@]1(Cn2ccnn2)[C@H](C(=O)O)N2C(=O)C[C@H]2S1(=O)=O [TAZOBACTAM] | Not Active | Not Active | Not Active | Not Active | Not Active | Not Active | Not Active | Not Active | Not Active | Not Active | Not Active | Not Active | 
CN1C(C(=O)Nc2ccccn2)=C(O)c2sccc2S1(=O)=O [TENOXICAM] | Not Active | Not Active | Not Active | Not Active | Not Active | Not Active | Not Active | Not Active | Not Active | Not Active | Not Active | Not Active | 
CC(C)(C)c1ccc(C(O)CCCN2CCC(C(O)(c3ccccc3)c3ccccc3)CC2)cc1 (configuration not stated) [TERFENADINE] | Not Active | Not Active | Not Active | Not Active | Not Active | Not Active | Not Active | Not Active |  | Not Active | Not Active | Not Active | 6.12
O=C1CCC(N2C(=O)c3ccccc3C2=O)C(=O)N1 (configuration not stated) [THALIDOMIDE] | Not Active | Not Active | Not Active | Not Active | Not Active | Not Active | Not Active | Not Active | Not Active | Not Active | Not Active | Not Active | 
Cc1cccc(Nc2ccncc2S(=O)(=O)NC(=O)NC(C)C)c1 [TORSEMIDE] | Not Active | Not Active | Not Active | Not Active | Not Active | Not Active | Not Active | Not Active | Not Active | Not Active | Not Active | Not Active | 
CC(C)C[C@H](NC(=O)[C@@H](O)[C@H](N)Cc1ccccc1)C(=O)O [UBENIMEX] | Not Active | Not Active | Not Active | Not Active | Not Active | Not Active | Not Active | Not Active | Not Active | Not Active | Not Active | Not Active | 
Cc1onc(-c2ccccc2)c1-c1ccc(S(N)(=O)=O)cc1 [VALDECOXIB] | Not Active | Not Active | Not Active | Not Active | Not Active | Not Active | Not Active | Not Active | Not Active | Not Active | Not Active | Not Active | 
[Cl-].[Cl-].[Zn+2] [ZINC CHLORIDE] | Not Active | Not Active | Not Active | Not Active | Not Active | Not Active | Not Active | Not Active |  | Not Active | Not Active | Not Active | 1.88
